Reference: paper PMC8286840, “Identifying SARS-CoV-2 antiviral compounds by screening for small molecule inhibitors of Nsp3 papain-like protease” (Biochemical Journal, 2021)
Where a name gives a salt, the structure may show the parent alone. Read-outs that look alike come from different tables or passages of the source.

Assays:
[1] = molecular target: T1, SARS-CoV-2 PLpro (nsp3 1564–1878) (Severe acute respiratory syndrome coronavirus 2, UniProt P0DTD1); assay: biochemical; set-up: FRET-quenched peptide (Pro3) cleavage by PLpro, 10 min pre-incubation, slope over 20 min, normalised to no-compound control; settings: read-out: % of control remaining
[2] = molecular target: T1, SARS-CoV-2 PLpro (nsp3 1564–1878); assay: biochemical; set-up: FRET-quenched peptide (Pro3) cleavage by PLpro, 10 min pre-incubation, slope over 20 min, normalised to no-compound control; settings: read-out: % of control remaining; remark: listed apart in the source

O=c1[nH]cc(F)c(=O)[nH]1 [5-Fluorouracil]
remaining activity at 1.25 µM ([1]; Well no.=661, low concentration screen): 97.2% | remaining activity at 1.25 µM ([1]; Well no.=2116, low concentration screen): 95.8% | remaining activity at 3.75 µM ([2]; Well no.=661, high concentration screen): 98.8% | remaining activity at 3.75 µM ([2]; Well no.=2116, high concentration screen): 98.2%

CC1(C)S[C@@H]2[C@H](NC(=O)[C@H](N)c3ccc(O)cc3)C(=O)N2[C@H]1C(=O)O [Amoxicillin]
remaining activity at 1.25 µM ([1]; Well no.=2000, low concentration screen): 98.8% | remaining activity at 1.25 µM ([1]; Well no.=7654, low concentration screen): 97% | remaining activity at 3.75 µM ([2]; Well no.=2000, high concentration screen): 100% | remaining activity at 3.75 µM ([2]; Well no.=7654, high concentration screen): 97.6%

COc1cc(=O)n(C)c2c(OCC(O)C(C)(C)O)cccc12 (stereo not drawn) [Foliosidine]
remaining activity at 1.25 µM ([1]; Well no.=565, low concentration screen): 104% | remaining activity at 3.75 µM ([2]; Well no.=565, high concentration screen): 97.8%

O=C(NCc1ccc2c(c1)OCO2)c1c(Cl)cccc1Cl [Alda-1]
remaining activity at 1.25 µM ([1]; Well no.=5935, low concentration screen): 101% | remaining activity at 3.75 µM ([2]; Well no.=5935, high concentration screen): 99.3%

Cc1cccc(C(=O)NCN2CCN(c3ccccc3C#N)CC2)c1 [PD 168,077 maleate]
remaining activity at 1.25 µM ([1]; Well no.=1171, low concentration screen): 106% | remaining activity at 3.75 µM ([2]; Well no.=1171, high concentration screen): 107%

Nc1ncnc2c1ccn2[C@@H]1O[C@H](CO)[C@@H](O)[C@H]1O [Tubercidin]
remaining activity at 1.25 µM ([1]; Well no.=8060, low concentration screen): 96.1% | remaining activity at 3.75 µM ([2]; Well no.=8060, high concentration screen): 95.7%

CCCN[C@H]1CCc2nc(N)sc2C1 [Pramipexole (dihydrochloride)]
remaining activity at 1.25 µM ([1]; Well no.=6229, low concentration screen): 108% | remaining activity at 3.75 µM ([2]; Well no.=6229, high concentration screen): 106%

C[N+](C)(C)CC#CCOC(=O)Nc1cccc(Cl)c1 [McN-A-343]
remaining activity at 1.25 µM ([1]; Well no.=184, low concentration screen): 102% | remaining activity at 3.75 µM ([2]; Well no.=184, high concentration screen): 96.2%

C[n+]1cc2c3c(ccc2c2ccc4cc5c(cc4c21)OCO5)OCO3 [Sanguinarine (chloride)]
remaining activity at 1.25 µM ([1]; Well no.=6636, low concentration screen): 99.4% | remaining activity at 3.75 µM ([2]; Well no.=6636, high concentration screen): 98.9%

CC(C)[C@H](CO)Nc1nc(Nc2ccc(C(=O)O)c(Cl)c2)c2ncn(C(C)C)c2n1 [Purvalanol B - (2R)-2-[[6-[(3-Chloro-4-carboxyphenyl)amino]-9-(1-methylethyl)-9H-purin-2-yl]amino]-3-methyl-1-butanol]
remaining activity at 1.25 µM ([1]; Well no.=2436, low concentration screen): 103% | remaining activity at 3.75 µM ([2]; Well no.=2436, high concentration screen): 105%

COCCCN1CCC(NC(=O)c2cc(Cl)c(N)c3c2OCC3)CC1 [Prucalopride (succinate)]
remaining activity at 1.25 µM ([1]; Well no.=7675, low concentration screen): 100% | remaining activity at 3.75 µM ([2]; Well no.=7675, high concentration screen): 103%

CCOC(=O)[C@H](CCc1ccccc1)N[C@@H](C)C(=O)N1C(=O)N(C)C[C@H]1C(=O)O [Imidapril (hydrochloride)]
remaining activity at 1.25 µM ([1]; Well no.=7686, low concentration screen): 99.8% | remaining activity at 3.75 µM ([2]; Well no.=7686, high concentration screen): 98%

CC(C(=O)O)c1ccc(-c2ccccc2)c(F)c1 (stereo not drawn) [Flurbiprofen]
remaining activity at 1.25 µM ([1]; Well no.=2118, low concentration screen): 99.6% | remaining activity at 3.75 µM ([2]; Well no.=2118, high concentration screen): 101%

COc1c(N2CCNC(C)C2)c(F)cc2c(=O)c(C(=O)O)cn(C3CC3)c12 (stereo not drawn) [Gatifloxacin]
remaining activity at 1.25 µM ([1]; Well no.=2170, low concentration screen): 103% | remaining activity at 3.75 µM ([2]; Well no.=2170, high concentration screen): 104%

CCOC(=O)[C@H](CCc1ccccc1)N[C@H]1CCc2ccccc2N(CC(=O)O)C1=O [Benazepril HCl]
remaining activity at 1.25 µM ([1]; Well no.=5153, low concentration screen): 97.7% | remaining activity at 3.75 µM ([2]; Well no.=5153, high concentration screen): 101%

CC(C)NCCCn1c(Sc2cc3c(cc2I)OCO3)nc2c(N)ncnc21 [PU-H71]
remaining activity at 1.25 µM ([1]; Well no.=8772, low concentration screen): 98.2% | remaining activity at 3.75 µM ([2]; Well no.=8772, high concentration screen): 95.7%

O=C(O)Cc1nn(Cc2nc3cc(C(F)(F)F)ccc3s2)c(=O)c2ccccc12 [Zopolrestat]
remaining activity at 1.25 µM ([1]; Well no.=5825, low concentration screen): 98.5% | remaining activity at 3.75 µM ([2]; Well no.=5825, high concentration screen): 98.9%

CS(=O)(=O)Nc1ccc(-c2coc3cc(OCc4cccc(C(=O)O)c4)ccc3c2=O)cc1 [CVT-10216]
remaining activity at 1.25 µM ([1]; Well no.=5513, low concentration screen): 105% | remaining activity at 3.75 µM ([2]; Well no.=5513, high concentration screen): 108%

COC(C)(C)CCCC(C)C/C=C/C(C)=C/C(=O)O (stereo not drawn) [Methoprene acid]
remaining activity at 1.25 µM ([1]; Well no.=4438, low concentration screen): 98.3% | remaining activity at 3.75 µM ([2]; Well no.=4438, high concentration screen): 100%

O=C(O)c1ccc(O)cc1 [4-Hydroxybenzoic acid]
remaining activity at 1.25 µM ([1]; Well no.=6729, low concentration screen): 108% | remaining activity at 3.75 µM ([2]; Well no.=6729, high concentration screen): 105%

C[C@H](N)C(=O)O [L-Alanine]
remaining activity at 1.25 µM ([1]; Well no.=7749, low concentration screen): 95.2% | remaining activity at 3.75 µM ([2]; Well no.=7749, high concentration screen): 97.6%

C[C@H](CS)C(=O)N1CCC[C@H]1C(=O)O [Captopril]
remaining activity at 1.25 µM ([1]; Well no.=318, low concentration screen): 93.1% | remaining activity at 1.25 µM ([1]; Well no.=1915, low concentration screen): 97.2% | remaining activity at 1.25 µM ([1]; Well no.=4135, low concentration screen): 101% | remaining activity at 1.25 µM ([1]; Well no.=7412, low concentration screen): 105% | remaining activity at 3.75 µM ([2]; Well no.=318, high concentration screen): 97% | remaining activity at 3.75 µM ([2]; Well no.=1915, high concentration screen): 100% | remaining activity at 3.75 µM ([2]; Well no.=4135, high concentration screen): 98% | remaining activity at 3.75 µM ([2]; Well no.=7412, high concentration screen): 106%

COc1ccc2c3n(c(=NC(=O)c4cccnc4)nc2c1OC)CCN3 [PIK-90]
remaining activity at 1.25 µM ([1]; Well no.=2747, low concentration screen): 91.2% | remaining activity at 3.75 µM ([2]; Well no.=2747, high concentration screen): 95%

CN(Cc1ccc(C(C)(C)C)cc1)Cc1cccc2ccccc12 [Butenafine HCl]
remaining activity at 1.25 µM ([1]; Well no.=5371, low concentration screen): 98.1% | remaining activity at 3.75 µM ([2]; Well no.=5371, high concentration screen): 97.8%

CCC1C(C)=NN=C(c2ccc(OC)c(OC)c2)c2cc(OC)c(OC)cc21 (stereo not drawn) [Tofisopam]
remaining activity at 1.25 µM ([1]; Well no.=5780, low concentration screen): 103% | remaining activity at 3.75 µM ([2]; Well no.=5780, high concentration screen): 103%

CC(C(=O)O)C(=O)O [Methylmalonate]
remaining activity at 1.25 µM [1]: 100% | remaining activity at 3.75 µM [2]: 95.5%

C#Cc1cccc(Nc2ncnc3cc4c(cc23)OCCOCCOCCO4)c1 [Icotinib]
remaining activity at 1.25 µM ([1]; Well no.=5229, low concentration screen): 92.9% | remaining activity at 3.75 µM ([2]; Well no.=5229, high concentration screen): 88.7%

CC(=O)OC[C@H]1O[C@@H](n2ccc(=O)[nH]c2=O)[C@H](OC(C)=O)[C@@H]1OC(C)=O [Uridine triacetate]
remaining activity at 1.25 µM ([1]; Well no.=7996, low concentration screen): 92.7% | remaining activity at 3.75 µM ([2]; Well no.=7996, high concentration screen): 94.1%

CCC(=O)O[C@]1(C(=O)CCl)[C@@H](C)C[C@H]2[C@@H]3C[C@H](F)C4=CC(=O)C=C[C@]4(C)[C@@]3(F)[C@@H](O)C[C@@]21C [Halobetasol Propionate]
remaining activity at 1.25 µM ([1]; Well no.=8250, low concentration screen): 94.9% | remaining activity at 3.75 µM ([2]; Well no.=8250, high concentration screen): 91.1%

CN1C(=O)[C@@H](NC(=O)c2n[nH]c(Cc3ccccc3)n2)COc2ccccc21 [GSK2982772]
remaining activity at 1.25 µM ([1]; Well no.=7074, low concentration screen): 96.7% | remaining activity at 3.75 µM ([2]; Well no.=7074, high concentration screen): 95.1%

Cc1ccccc1C(=O)Nc1ccc(C(=O)N2CCCC(N(C)C)c3ccccc32)cc1 (stereo not drawn) [Mozavaptan]
remaining activity at 1.25 µM ([1]; Well no.=4936, low concentration screen): 101% | remaining activity at 1.25 µM ([1]; Well no.=6515, low concentration screen): 93.2% | remaining activity at 3.75 µM ([2]; Well no.=4936, high concentration screen): 101% | remaining activity at 3.75 µM ([2]; Well no.=6515, high concentration screen): 96.3%

COc1ccccc1N1CCN(CCN(C(=O)C2CCCCC2)c2ccccn2)CC1 [WAY-100635 maleate]
remaining activity at 1.25 µM ([1]; Well no.=1292, low concentration screen): 107% | remaining activity at 3.75 µM ([2]; Well no.=1292, high concentration screen): 107%

[N-]=[N+]=N[C@H]1[C@@H](O)[C@H](n2cc(F)c(N)nc2=O)O[C@@H]1CO [3'-Azido-3'-deoxy-5-fluorocytidine]
remaining activity at 1.25 µM ([1]; Well no.=7910, low concentration screen): 96.3% | remaining activity at 3.75 µM ([2]; Well no.=7910, high concentration screen): 95%
